In PubChem BioAssay (NCI) one finds GI50 and TGI data, which are given here for 10 molecules.

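Interpolation was linear, between the two tested concentrations surrounding the appropriate level; five concentrations were tested over 48 hours in 96-well plates. Here, GI50 denotes the concentration required for 50% inhibition of growth. The concentration for full growth arrest is given as TGI.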

Holding throughout (experiment): NCI-60 cell line screen, 48 h
Experiment [1] deals with HOP-92 NSCLC.
In experiment [2] the test system is HL-60(TB) leukemia.
The test system of experiment [3] is MDA-MB-231 breast.
In experiment [4] the test system is SR leukemia.
Experiment [5] deals with MOLT-4 leukemia.
Experiment [6] deals with MALME-3M melanoma.
Experiment [7] has as its system SF-539 CNS.
Experiment [8] deals with A498 renal.
The test system of experiment [9] is NCI-H23 lung.
Experiment [10] has as its system SK-MEL-28 melanoma.

Take `O=c1oc2ccc(Br)cc2c(=O)n1-c1ccc(I)cc1F`: the GI50 is 0.164 µM in experiment [1]; 0.375 µM in experiment [2]; 0.327 µM in experiment [3]; 0.417 µM in experiment [4]; 0.579 µM in experiment [5]; 0.32 µM in experiment [6]. Besides, the GI50 in [7] was 0.403 µM; in experiment [8], 0.15 µM; in [9] it was 0.328 µM; in experiment [10] it was 0.347 µM. For the same molecule, the TGI in experiment [1] was 0.492 µM; in experiment [2], 1.99 µM; in experiment [3] it was 2.54 µM; in experiment [4], 21.9 µM; in experiment [5], 3.22 µM; in experiment [6], 1.27 µM. In addition, the TGI in [7] is 4.04 µM; in [8], 0.377 µM; in experiment [9] it was 1.89 µM; in experiment [10] it was 1.75 µM.
Regarding `COc1ccc(C2C=C(c3ccc4c(c3)OCO4)Oc3c2c(=O)oc2ccccc32)cc1OC` (stereo not given), the TGI in [1] was greater than 73.1 µM; in experiment [2] it was 0.6 µM; in experiment [3], greater than 100 µM; in experiment [4] it was 0.594 µM; in [5] it was greater than 100 µM; in [6], greater than 100 µM. Moreover, the TGI in experiment [7] is 1.81 µM; in experiment [8], 7.21 µM; in [9] it was greater than 46.2 µM; in experiment [10], greater than 100 µM.
As for `COc1cc2c(cc1Nc1nc(Nc3cccc(F)c3C(N)=O)c3cc[nH]c3n1)N(C(=O)CN1CCN(C(C)C)CC1)CC2`, the GI50 in experiment [1] was 0.374 µM; in experiment [2], 1.42 µM; in [3], 3.94 µM; in experiment [4], 1.19 µM; in [5], 4.74 µM; in experiment [6], 3.17 µM. For the same molecule, the GI50 is 3.74 µM in [7], 2.43 µM in [8], 3.36 µM in [9] and 3.7 µM in experiment [10]. Further, the TGI in experiment [1] was 3.13 µM; in experiment [2], 5.6 µM; in experiment [3], 8.22 µM; in [4], 15.2 µM; in experiment [5], 10.7 µM; in experiment [6], 7.06 µM. For the same molecule, the TGI in [7] is 7.7 µM; in [8] it was 3.68 µM; in [9], 7.05 µM; in [10], 7.02 µM.
`O=c1ssc(Cl)c1Cl`: the TGI in experiment [1] is greater than 10 µM; in [2], 6.04 µM; in [3] it was greater than 10 µM; in experiment [4], greater than 10 µM; in experiment [5], 4.9 µM; in [6], 9.77 µM. Also, the TGI in experiment [7], in [8], in experiment [9] and in experiment [10] was greater than 10 µM each time.
For the molecule `CC(=O)Nc1ccc(COC(O)CN2CCCCC2)cc1[N+](=O)[O-]` (stereo not given), the TGI in experiment [1], in [2], in experiment [3], in [4], in experiment [5] and in experiment [6] was greater than 100 µM in each case. The TGI in experiment [7], in [8], in experiment [9] and in experiment [10] was greater than 100 µM throughout.
`NCOC(=O)Cc1ccc(Br)cc1`: the TGI in [1], in [2], in experiment [3], in [4], in experiment [5] and in experiment [6] was greater than 100 µM throughout. In addition, the TGI in experiment [7], in [8], in [9] and in experiment [10] was greater than 100 µM in each case.
For the molecule `CC(=O)N1N=C2/C(=C/c3ccc(Cl)cc3)CC(C)CC2C1c1ccc(Cl)cc1` (stereo not given), the GI50 in experiment [1] is 19.5 µM; in [2], 13.5 µM; in experiment [3] it was 18.1 µM; in [4], 14.6 µM; in experiment [5], 11.6 µM; in experiment [6], 23.6 µM. Further, the GI50 is 19.1 µM in experiment [7], 13 µM in [8], 25.2 µM in experiment [9] and 23.7 µM in experiment [10]. The TGI in experiment [1] was found to be 54 µM; in [2] it was 59.5 µM; in experiment [3], 52.6 µM; in [4], 53.8 µM; in experiment [5], 39.3 µM; in experiment [6], 76.2 µM. Also, the TGI is 38 µM in [7], 28.7 µM in experiment [8], greater than 100 µM in experiment [9] and 53.8 µM in experiment [10].
On to `CN(Cc1cc(Cl)cc(Cl)c1O)Cc1c(O)ccc2ccccc12`, for which the TGI in experiment [1] was found to be 36.5 µM; in [2] it was 57.4 µM; in experiment [3], 32.2 µM; in [4] it was 68.2 µM; in experiment [5], 58.3 µM; in experiment [6] it was 28.9 µM. The TGI in experiment [7] turned out to be 38.5 µM; in experiment [8] it was 31 µM; in [9], 33.5 µM; in [10], 37.3 µM.
Take `CCN(CC)C1CCC(Nc2c(C(C)=O)cnc3ccc(-c4ccc(O)c(Cl)c4)cc23)CC1` (stereo not given): the GI50 in experiment [1] is 0.227 µM; in experiment [2], 0.15 µM; in experiment [3], 0.741 µM; in [4], 0.195 µM; in [5] it was 0.253 µM; in experiment [6], 0.941 µM. In addition, the GI50 in [7] was 0.551 µM; in experiment [8] it was 2.19 µM; in experiment [9] it was 0.474 µM; in experiment [10], 1.83 µM. The TGI was found to be 4.27 µM in experiment [1]; 1.51 µM in experiment [2]; 12.5 µM in experiment [3]; 0.72 µM in [4]; 1.18 µM in [5]; 16.9 µM in experiment [6]. The TGI in experiment [7] was found to be 7.87 µM; in experiment [8], 6.84 µM; in experiment [9], 3.1 µM; in experiment [10], 16.2 µM.
Consider `COc1ccc(Nc2cc(C)nc(NCCCNc3ccnc4cc(Cl)ccc34)n2)cc1`, for which the GI50 in experiment [1] was 1.24 µM; in [2], 2.37 µM; in experiment [3], 1.55 µM; in experiment [4] it was 0.778 µM; in experiment [5] it was 2.95 µM; in [6], 2.07 µM. The GI50 in [7] was 1.24 µM; in experiment [8], 1.49 µM; in [9] it was 2.27 µM; in [10] it was 1.65 µM. For the same molecule, the TGI in experiment [1] is 3.3 µM; in experiment [2], 5.66 µM; in experiment [3], 3.31 µM; in [4], 3.62 µM; in [5], greater than 100 µM; in [6], 3.94 µM. In addition, the TGI was 2.64 µM in [7], 3.39 µM in experiment [8], 5.78 µM in experiment [9] and 3.16 µM in experiment [10].
